In publication PMC5454942, “The Potential of Triterpenoids from Loquat Leaves (Eriobotrya japonica) for Prevention and Treatment of Skin Disorder” (International Journal of Molecular Sciences, 2017):
Values after ≈ are worked out from the molar mass of the structure shown. Values joined by “and” are separate entries in the source; they are usually repeats but may differ in a detail not shown here. Equal entries are not always repeated. Where two headings read alike, the source gives them in different places.

Columns and labels:
B16 melanoma cells [1] = assay: Anti-melanogenesis assay (melanin content); assay type: cell-based, mouse; settings: for inhibition at 1 µg/mL: 1 μg/ml; for inhibition at 2.5 µg/mL: 2.5 μg/ml; for inhibition at 5 µg/mL: 5 μg/ml; for inhibition at 20 µg/mL: 20 μg/ml
Procedure: (§1) This assay was performed as described by Arung et al.. The mouse melanoma cell line B16 was obtained from the Riken Bioresource Center Cell Bank (Tsukuba, Japan). The B16 melanoma cells were maintained in Eagle’s Minimal Essential Medium (EMEM, Nissui Chemical, Tokyo) supplemented with 10% (v/v) fetal bovine serum (FBS; Gibco, Carlsbad, CA, USA) and 0.09 mg/mL theophylline (Sigma-Aldrich, St. Louis, MO, USA). […] After 24 h, test samples were dissolved in DMSO (<0.2% per well) and sample solution were added to each well. Arbutin (Tokyo Kasei Kogyo, Tokyo) was used as a positive control. The cells were incubated for an additional 48 h, and then the medium was replaced with fresh medium containing each sample again. After 24 h, the melanin content and the cell viability were measured using a microplate reader (BioTek-ELX800, BioTek Instruments, Winooski, VT, USA) at 405 nm and 570 nm, respectively. Cell viability was measured using the MTT (3-(4,5-dimethylthiazol-2-yl)-2,5-diphenyltetrazolium bromide) method.

[2] = Cell viability of B16 melanoma cells (MTT); settings: mouse
Procedure: as §1

B16 melanoma cells [3] = assay: Cell viability of B16 melanoma cells (MTT); settings: for Inhibition rate (100% − cell viability): B16 cells
Procedure: as §1

mushroom tyrosinase = assay: Tyrosinase inhibition assay; assay type: biochemical; settings: for inhibitory effect on tyrosinase (in words): L-DOPA as substrate; for inhibitory activity on tyrosinase (in words): L-tyrosine as substrate, relatively high concentrations
Procedure: Tyrosinase inhibition activity was evaluated by using L-tyrosine and L-DOPA as substrates, as described. Briefly, 333 μL of 2.5 mM L-tyrosine or L-DOPA solution (Sigma-Aldrich) was mixed with 600 μL of 0.1 M phosphate buffer (pH 6.8) and incubated at 25 °C. Then, 33 μL of the sample solution (dissolved in DMSO in various concentrations) and 33 μL of 1380 units/mL mushroom tyrosinase (Sigma-Aldrich) were added to the mixture. The optical density was measured at 475 nm up to the appropriate time. Kojic acid (Sigma-Aldrich) was used as the positive control; the final concentration is 3.3 μg/mL.

Propionibacterium acnes = assay: Anti-bacterial assay (growth inhibition, MIC/MBC by broth microdilution); assay type: cell-based; settings: for MBC / MIC: P. acnes, broth microdilution; for MBC: read-out: MBC; for inhibition at 100 µg/mL: read-out: Inhibition Rate (P. acnes growth); for activity against P. acnes (in words): at their maximum solubility
Procedure: The antibacterial assay was based mostly on the methods described by Tanaka et al. with slight modification. Propionibacterium acne (NBRC 107605) was used for the antibacterial assay. A single colony of the test strain was taken and 5 mL of Gifu anaerobic medium (GAM) broth (Nissui, Tokyo) was added to it. This culture was incubated at 37 °C for 30 h. It was then added to the bacterial suspension to prepare a bacterial concentration at 10^5 CFU/mL. The bacterial solution was used for the subsequent antibacterial assay. Each compound was dissolved in DMSO, and benzalkonium chloride (Wako) was used as a positive control. The plate was incubated at 37 °C for 30 h. Finally, bacterial growth was measured by a microplate reader at 630 nm. The MIC and MBC were evaluated by the standard broth microdilution method.

RBL-2H3 cells [4] = assay: β-hexosaminidase release from IgE-stimulated RBL-2H3 mast cells; assay type: cell-based, rat
Procedure: (§2) The anti-allergy assay was based mostly on the methods described by Zhu et al. and Yun et al. with slight modification. Rat basophilic leukemia (RBL-2H3) cells were obtained from the Riken Bio-resource Center Cell Bank (Tsukuba, Japan). RBL-2H3 cells were incubated in EMEM medium containing 10% FBS and 1% antibiotics–antimycotics at 37 °C. The cells were seeded on a 96-well plate (2 × 10^5 cells/well). After 24 h of incubation, the medium was supplemented with 0.5 μg/mL anti-DNP (dinitrophenol) mouse immunoglobulin E (IgE) (Sigma-Aldrich). After an additional 24 h of incubation, the medium was replaced with 100 μL of Tyrode buffer. The sample dissolved in DMSO (<0.5% per well) was added, and the cell plate was incubated again for 30 min, then replaced with 100 μL of tyrode buffer containing 50 μg/mL DNP-bovine serum albumin (BSA) (Invitrogen, Carlsbad, CA, USA). After 1 h of incubation, 50 μL of the supernatant was collected from each well and mixed with 50 μL of substrate solution (p-nitrophenyl-N-acetyl-β-glucosaminide, 2 mM; Sigma-Aldrich) in a new 96-well plate. The mixture was incubated at room temperature on a shaker for 3 h. Finally, 100 μL of stop solution was added, and the absorbance was read at 405 nm. A parallel MTT experiment was performed to measure the cell viability. The MTT experiment was done exactly as described.

[5] = Cell viability of RBL-2H3 cells (parallel MTT); assay type: cell-based, rat; settings: rat
Procedure: as §2

[6] = tested on: inflammation induced by 12-O-tetradecanoylphorbol-13-acetate (TPA); design: method as in PMID 16204964, PMID 14745168; settings: mice; cited from earlier work
[7] = tested on: Epstein–Barr virus early antigen; design: method as in PMID 16204964, PMID 14745168; settings: cited from earlier work
RBL-2H3 cells [8] = assay: Cell viability of RBL-2H3 cells (parallel MTT); assay type: cell-based, rat; settings: 25 μg/ml, RBL-2H3 cells
Procedure: as §2

NHDF cells = assay: Skin type I collagen synthesis promoting assay (ELISA, with MTT); assay type: cell-based, human; settings: 5 μg/mL, fold of control
Procedure: The assay for measuring the promotion of skin collagen synthesis was described by Kishikawa et al.. Adult NHDF cells (Lonza, Tokyo) were routinely maintained in 10% FBS and 1% antibiotic-antimycotic (Invitrogen) in Dulbecco’s modified Eagle’s medium (DMEM, Wako). After growing to confluence, cells at a density of 5 × 10^3 cells/well were seeded on 96-well plates for 24 h before the treatment. The medium was replaced with a mixture of 1 μL of sample solution (DMSO < 0.5% per well) and 99 μL of DMEM supplemented with 0.5% FBS. After 72 h of cultivation, the amount of collagen in the medium was measured using a human type I collagen enzyme-linked immunosorbent assay (ELISA) kit (ACEL, Kanagawa, Japan). The amount of collagen production was calculated using a standard curve prepared by measurement by the same ELISA. The cells remaining in the 96-well plate were subjected to an MTT assay. Ascorbic acid (100 μM, Wako) was used as a positive control.

[9] = Mus musculus, B16 cells, read-out: Inhibition rate (100% − melanin synthesis)
[10] = Mus musculus, 10 μg/ml, B16 cells, read-out: Inhibition rate (100% − melanin synthesis)
[11] = Mus musculus, B16 melanoma cells, read-out: IC50 (melanin synthesis)
[12] = Mus musculus, B16 melanoma cells, read-out: IC50 melanin
[13] = Cutibacterium acnes, read-out: MIC
[14] = Cutibacterium acnes, concentration 100 μg/mL
[15] = Rattus norvegicus, RBL-2H3, 25 μg/mL, read-out: Inhibition Rate (β-hexosaminidase release)
[16] = 25 μg/ml, RBL-2H3 cells, read-out: Cell viability

Row | Structure (SMILES) | S.I (selectivity index, CC50 value/IC50 value) (B16 melanoma cells [1]; B16 melanoma cells) | inhibition at 1 µg/mL (B16 melanoma cells [1]; [9]) | inhibition at 2.5 µg/mL (B16 melanoma cells [1]; [9]) | inhibition at 5 µg/mL (B16 melanoma cells [1]; [9]) | inhibition at 10 µg/mL (B16 melanoma cells [1]; [10]) | inhibition at 20 µg/mL (B16 melanoma cells [1]; [9]) | IC50 (B16 melanoma cells [1]; [11]) | IC50 (B16 melanoma cells [1]; [12]) | Inhibition rate (100% − cell viability) (B16 melanoma cells [3]; 1 μg/ml) | Inhibition rate (100% − cell viability) (B16 melanoma cells [3]; 2.5 μg/ml) | Inhibition rate (100% − cell viability) (B16 melanoma cells [3]; 5 μg/ml) | Inhibition rate (100% − cell viability) (B16 melanoma cells [3]; 10 μg/ml) | Inhibition rate (100% − cell viability) (B16 melanoma cells [3]; 20 μg/ml) | inhibitory effect on tyrosinase (in words) (mushroom tyrosinase) | inhibitory activity on tyrosinase (in words) (mushroom tyrosinase) | MBC (Propionibacterium acnes; Cutibacterium acnes) | MIC (Propionibacterium acnes; [13]) | inhibition at 100 µg/mL (Propionibacterium acnes; [14]) | activity against P. acnes (in words) (Propionibacterium acnes) | inhibition at 25 µg/mL (RBL-2H3 cells [4]; [15]) | also measured
1 | CC1(C)CC[C@]2(C(=O)O)CC[C@]3(C)C(=CC[C@@H]4[C@@]5(C)CC[C@H](O)C(C)(C)[C@@H]5CC[C@]43C)[C@@H]2C1 [Compound 2, Oleanolic acid] | 1.5 | 9.5 ± 4.6% | 27.8 ± 4.8% | 33.5 ± 6% | 45.9 ± 1.5% | 58.6 ± 2.3% | 26.8 µM | 12.2 µg/mL | 4.9 ± 4.6% | 7.8 ± 4.1% | 17.0 ± 6.2% | 27.4 ± 7.0% | 54.9 ± 2.3% | no inhibitory effect | moderate inhibitory activity | 200 µg/mL (≈ 438 µM) | 100 µg/mL (≈ 219 µM) | 100.4 ± 0.8% | active | 5.8 ± 6.7% | CC50 at 72 h ([2]; B16 melanoma cells): 18.2 µg/mL and 39.9 µM; viability at 25 μg/ml [5, 16]: 102 ± 6.2%
2 | C=C(C)[C@@H]1CC[C@]2(C(=O)O)CC[C@]3(C)[C@H](CC[C@@H]4[C@@]5(C)CC[C@H](O)C(C)(C)[C@@H]5CC[C@]43C)[C@@H]12 [Compound 4, Betulinic acid] | 1.4 | 35.4 ± 0.5% | 44.8 ± 1.4% | 49.7 ± 3.1% | 54 ± 3.3% |  | 11.8 µM | 5.3 µg/mL | 1.2 ± 12.0% | 20.8 ± 5.2% | 35.9 ± 5.2% | 58.4 ± 14.1% | 68.1 ± 11.4% | no inhibitory effect | moderate inhibitory activity |  |  | < 0% |  | 29.4 ± 8.1% | inhibition at 0.5 µg/mL (B16 melanoma cells [1]; Mus musculus, 0.5 μg/ml, B16 cells, read-out: Inhibition rate (100% − melanin synthesis)): 23.2 ± 1.4%; CC50 at 72 h [2]: 7.6 µg/mL and 16.7 µM; viability at 25 μg/ml [5, 16]: 97.9 ± 10.6%
3 | C[C@@H]1CC[C@]2(C(=O)O)CC[C@]3(C)C(=CC[C@@H]4[C@@]5(C)C[C@@H](O)[C@@H](O)C(C)(C)[C@@H]5CC[C@]43C)[C@@H]2[C@]1(C)O [Compound 12, euscaphic acid] | 0.7 |  | 0% | 0% | 35 ± 3.6% | 58.8% | 34 µM | 16.6 µg/mL |  | 0.0 ± 6.9% | 0.0 ± 6.6% | 44.9 ± 2.7% | 91.1 ± 1.0% |  |  | 50 µg/mL (≈ 102 µM) | 50 µg/mL (≈ 102 µM) | 98.5 ± 1.3% | active | 74.5 ± 1.3% | CC50 at 72 h [2]: 12.5 µg/mL and 25.6 µM; MIC (Propionibacterium acnes): 50/50 μg/mL; inhibition at 1 µg/mL (RBL-2H3 cells [4]; Rattus norvegicus, RBL-2H3, 1 μg/mL, read-out: Inhibition Rate (β-hexosaminidase release)): 10.4 ± 10.8%; inhibition at 5 µg/mL (RBL-2H3 cells [4]; Rattus norvegicus, RBL-2H3, 5 μg/mL, read-out: Inhibition Rate (β-hexosaminidase release)): 37.7 ± 3.9%; inhibition at 12.5 µg/mL (RBL-2H3 cells [4]; Rattus norvegicus, RBL-2H3, 12.5 μg/mL, read-out: Inhibition Rate (β-hexosaminidase release)): 67 ± 1.8%; IC50 (RBL-2H3 cells [4]; Rattus norvegicus, IgE-stimulated RBL-2H3 cells, read-out: IC50 (β-hexosaminidase release)): 15.8 µM; viability at 25 μg/ml [5]: 93.9 ± 7.3%; inhibitory activity against TPA-induced inflammation (in words) [6]: significant inhibitory activity; inhibitory activity against TPA-induced Epstein–Barr virus early antigen activation (in words) [7]: significant inhibitory activity
4 | C[C@@H]1CC[C@]2(C(=O)O)CC[C@]3(C)C(=CC[C@@H]4[C@@]5(C)C[C@@H](O)C(=O)C(C)(C)[C@@H]5CC[C@]43C)[C@@H]2[C@]1(C)O [Compound 15, 2α, 19α-dihydroxy-3-oxo-12-ursen-28-oic acid] |  |  |  |  |  |  |  |  |  |  | 5.6 ± 4.6% | 11.4 ± 3.9% | 26.4 ± 1.4% |  |  |  |  |  |  |  | Inhibition rate (100% − melanin synthesis) (B16 melanoma cells [1]; 10 μg/ml, B16 cells): 24.2 ± 1.0%; IC50 melanin (B16 melanoma cells [1]; B16 melanoma cells): > 20.0 µg/mL; IC50 (B16 melanoma cells [1]; B16 melanoma cells, read-out: IC50 (melanin synthesis)): > 42.3 µM; CC50 cell viability (B16 melanoma cells [3]; B16 melanoma cells, MTT): > 20.0 µg/mL; CC50 (B16 melanoma cells [3]; read-out: CC50 (cell viability), B16 melanoma cells, MTT): > 42.3 µM; Inhibition Rate (P. acnes growth) (Propionibacterium acnes; concentration 100 μg/mL): – (no inhibition); Inhibition Rate (β-hexosaminidase release) (RBL-2H3 cells [4]; 25 μg/mL): 0.9 ± 0.0%; Cell viability (RBL-2H3 cells [8]): 102.1 ± 2.2%; CP/CV value (collagen production %/cell viability %) (NHDF cells): 1.1
